Experimental data published in patent US9439432B2, “Phenylisoxazoline-based compound having herbicidal activity and use thereof” (MOGHU RESEARCH CENTER LTD, priority 2011, dated 2016).

Experiments:
Format in all cases: in vivo
Corn [1] = assay: Pre-emergence treatment, phytotoxicity to corn; conditions: 500 g/ha, 4 weeks after spraying, scale 0 to 10 (0: no effects, 10: complete death)
Description: (§1) A rectangular plastic pot having a surface area of 300 cm^2 was filled with sandy loam soil and mixed bed soil which were mixed at a ratio of 1:1, and then, barnyardrass (Echinochloa crusgalli), large crabgrass (Digitaria sanguinalis), blackgrass (Alopecurus myosuroides), and annual bluegrass (Poa annua), which are grass weeds, were seeded thereto. In a pot that was prepared as described above, seeds of corn, soybean, cotton, wheat, and rice were seeded. The pots were irrigated, and one day after, chemicals were sprayed thereto. The spraying was performed by using a track sprayer (R&D Sprayer, USA) equipped with a Teejet 8002 (Spraying Systems Co., USA) nozzle, and a spraying amount was adjusted at 300 L/ha. A spraying solution was prepared by dissolving test materials or references in acetone and adding the same amount of 0.2%(v/v) tween 20 aqueous solution thereto. Application rates were 500, 250, 125, and 62.5 g/ha. The pots were placed in a greenhouse in which during day, the temperature was maintained at a temperature of 25 to 30° C., and during night, the temperature was maintained at a temperature of 15 to 25° C., and the pots were periodically irrigated. Four weeks after the spraying the test materials or References, effects and phytotoxicity of the respective weeds and crops were evaluated in a scale of 0 to 10 (0: no effects, 10: complete death), and results thereof are shown in Table 4 below.

Soybean [2] = assay: Pre-emergence treatment, phytotoxicity to soybean; conditions: 500 g/ha, 4 weeks after spraying, scale 0 to 10 (0: no effects, 10: complete death)
Description: as §1

Cotton [3] = assay: Pre-emergence treatment, phytotoxicity to cotton; conditions: 500 g/ha, 4 weeks after spraying, scale 0 to 10 (0: no effects, 10: complete death)
Description: as §1

Wheat [4] = assay: Pre-emergence treatment, phytotoxicity to wheat; conditions: 500 g/ha, 4 weeks after spraying, scale 0 to 10 (0: no effects, 10: complete death)
Description: as §1

Rice [5] = assay: Pre-emergence treatment, phytotoxicity to rice; conditions: 500 g/ha, 4 weeks after spraying, scale 0 to 10 (0: no effects, 10: complete death)
Description: as §1

Echinochloa crusgalli [6] = assay: Pre-emergence treatment, herbicidal efficacy on barnyardgrass; conditions: 4 weeks after spraying
Description: as §1

Digitaria sanguinalis [7] = assay: Pre-emergence treatment, herbicidal efficacy on large crabgrass; conditions: 4 weeks after spraying, scale 0 to 10
Description: as §1

Poa annua [8] = assay: Pre-emergence treatment, herbicidal efficacy on annual bluegrass; conditions: 4 weeks after spraying, scale 0 to 10
Description: as §1

Alopecurus myosuroides [9] = assay: Pre-emergence treatment, herbicidal efficacy on blackgrass; conditions: 4 weeks after spraying, scale 0 to 10
Description: as §1

Corn [10] = assay: Post-emergence treatment, phytotoxicity to corn; conditions: post-emergence (about 3 leaf stage), 1,000 g/ha, 4 weeks after spraying, scale 0 to 10 (0: no effects, 10: complete death)
Description: as §1
(§2) Pots containing crops and weeds were prepared in the same manner as in Example 7, and then, in the second week in which crops and weeds entered into about 3 leaf stage, the test materials and the references were sprayed thereto in the same manner as described above. The rates were 1,000, 500, 250, and 125 g/ha. Four weeks after the spraying of the test materials or the references, herbicidal efficacy and phytotoxicity to the respective weeds and crops were evaluated in a scale of 0 to 10 (0: no effects, 10: complete death).

Soybean [11] = assay: Post-emergence treatment, phytotoxicity to soybean; conditions: post-emergence (about 3 leaf stage), 1,000 g/ha, 4 weeks after spraying, scale 0 to 10 (0: no effects, 10: complete death)
Description: as §1, §2

Cotton [12] = assay: Post-emergence treatment, phytotoxicity to cotton; conditions: post-emergence (about 3 leaf stage), 1,000 g/ha, 4 weeks after spraying, scale 0 to 10 (0: no effects, 10: complete death)
Description: as §1, §2

Wheat [13] = assay: Post-emergence treatment, phytotoxicity to wheat; conditions: post-emergence (about 3 leaf stage), 1,000 g/ha, 4 weeks after spraying, scale 0 to 10 (0: no effects, 10: complete death)
Description: as §1, §2

Rice [14] = assay: Post-emergence treatment, phytotoxicity to rice; conditions: post-emergence (about 3 leaf stage), 1,000 g/ha, 4 weeks after spraying, scale 0 to 10 (0: no effects, 10: complete death)
Description: as §1, §2

Echinochloa crusgalli [15] = assay: Post-emergence treatment, herbicidal efficacy on barnyardgrass; conditions: 4 weeks after spraying, scale 0 to 10
Description: as §1, §2

Digitaria sanguinalis [16] = assay: Post-emergence treatment, herbicidal efficacy on large crabgrass; conditions: 4 weeks after spraying, scale 0 to 10
Description: as §1, §2

Poa annua [17] = assay: Post-emergence treatment, herbicidal efficacy on annual bluegrass; conditions: 4 weeks after spraying, scale 0 to 10
Description: as §1, §2

Alopecurus myosuroides [18] = assay: Post-emergence treatment, herbicidal efficacy on blackgrass; conditions: 4 weeks after spraying, scale 0 to 10
Description: as §1, §2

[19] = 500 g/ha, scale 0 to 10 (0: no effects, 10: complete death)

CC1(COCc2c(F)cccc2F)CC(c2ccccc2Br)=NO1 (stereo not drawn) [Compound 3, 3-(2-bromophenyl)-5-((2,6-difluorobenzyloxy)methyl)-5-methyl-4,5-dihydroisoxazole]
5: Herbicidal efficacy, Alopecurus myosuroides (Alopecurus myosuroides [9]; 250 g/ha)
8: Herbicidal efficacy, Poa annua (Poa annua [8]; 250 g/ha)
7: Herbicidal efficacy, Poa annua (Poa annua [8]; 125 g/ha) | Herbicidal efficacy, Alopecurus myosuroides (Alopecurus myosuroides [9]; 500 g/ha)
2: Phytotoxicity, Corn (Corn [1])
0: Phytotoxicity, Soybean (Soybean [2]) | Phytotoxicity, Cotton (Cotton [3]) | Phytotoxicity, Wheat (Wheat [4]) | Phytotoxicity, Rice (Rice [5])
10: Herbicidal efficacy, Echinochloa crusgalli (Echinochloa crusgalli [6]; 62.5 g/ha, scale 0 to 10) | Herbicidal efficacy, Echinochloa crusgalli (Echinochloa crusgalli [6]; 125 g/ha, scale 0 to 10) | Herbicidal efficacy, Echinochloa crusgalli (Echinochloa crusgalli [6]; 250 g/ha, scale 0 to 10) | Herbicidal efficacy, Echinochloa crusgalli (Echinochloa crusgalli [6]; [19]) | Herbicidal efficacy, Digitaria sanguinalis (Digitaria sanguinalis [7]; 62.5 g/ha) | Herbicidal efficacy, Digitaria sanguinalis (Digitaria sanguinalis [7]; 125 g/ha) | Herbicidal efficacy, Digitaria sanguinalis (Digitaria sanguinalis [7]; 250 g/ha) | Herbicidal efficacy, Digitaria sanguinalis (Digitaria sanguinalis [7]; 500 g/ha) | Herbicidal efficacy, Poa annua (Poa annua [8]; 500 g/ha)
4: Herbicidal efficacy, Poa annua (Poa annua [8]; 62.5 g/ha) | Herbicidal efficacy, Alopecurus myosuroides (Alopecurus myosuroides [9]; 62.5 g/ha) | Herbicidal efficacy, Alopecurus myosuroides (Alopecurus myosuroides [9]; 125 g/ha)

CC1(COCc2ccccc2F)CC(c2ccccc2[N+](=O)[O-])=NO1 (stereo not drawn) [Reference A]
2: Herbicidal efficacy, Echinochloa crusgalli (Echinochloa crusgalli [6]; 125 g/ha, scale 0 to 10) | Herbicidal efficacy, Digitaria sanguinalis (Digitaria sanguinalis [7]; 125 g/ha) | Herbicidal efficacy, Poa annua (Poa annua [8]; 125 g/ha) | Herbicidal efficacy, Echinochloa crusgalli (Echinochloa crusgalli [15]; post-emergence, 250 g/ha) | Herbicidal efficacy, Alopecurus myosuroides (Alopecurus myosuroides [18]; post-emergence, 1,000 g/ha)
4: Herbicidal efficacy, Digitaria sanguinalis (Digitaria sanguinalis [16]; post-emergence, 500 g/ha)
6: Herbicidal efficacy, Echinochloa crusgalli (Echinochloa crusgalli [6]; 250 g/ha, scale 0 to 10) | Herbicidal efficacy, Digitaria sanguinalis (Digitaria sanguinalis [7]; 250 g/ha)
9: Herbicidal efficacy, Poa annua (Poa annua [8]; 500 g/ha)
5: Herbicidal efficacy, Poa annua (Poa annua [8]; 250 g/ha) | Herbicidal efficacy, Echinochloa crusgalli (Echinochloa crusgalli [15]; post-emergence, 500 g/ha) | Herbicidal efficacy, Digitaria sanguinalis (Digitaria sanguinalis [16]; post-emergence, 1,000 g/ha) | Herbicidal efficacy, Poa annua (Poa annua [17]; post-emergence, 1,000 g/ha)
10: Herbicidal efficacy, Echinochloa crusgalli (Echinochloa crusgalli [6]; [19]) | Herbicidal efficacy, Digitaria sanguinalis (Digitaria sanguinalis [7]; 500 g/ha) | Herbicidal efficacy, Alopecurus myosuroides (Alopecurus myosuroides [9]; 500 g/ha)
7: Herbicidal efficacy, Echinochloa crusgalli (Echinochloa crusgalli [15]; post-emergence, 1,000 g/ha)
1: Phytotoxicity, Soybean (Soybean [11]) | Herbicidal efficacy, Digitaria sanguinalis (Digitaria sanguinalis [16]; post-emergence, 250 g/ha)
3: Herbicidal efficacy, Alopecurus myosuroides (Alopecurus myosuroides [9]; 250 g/ha) | Herbicidal efficacy, Poa annua (Poa annua [17]; post-emergence, 500 g/ha)
0: Phytotoxicity, Corn (Corn [1]) | Phytotoxicity, Soybean (Soybean [2]) | Phytotoxicity, Cotton (Cotton [3]) | Phytotoxicity, Wheat (Wheat [4]) | Phytotoxicity, Rice (Rice [5]) | Herbicidal efficacy, Echinochloa crusgalli (Echinochloa crusgalli [6]; 62.5 g/ha, scale 0 to 10) | Herbicidal efficacy, Digitaria sanguinalis (Digitaria sanguinalis [7]; 62.5 g/ha) | Herbicidal efficacy, Poa annua (Poa annua [8]; 62.5 g/ha) | Herbicidal efficacy, Alopecurus myosuroides (Alopecurus myosuroides [9]; 62.5 g/ha) | Herbicidal efficacy, Alopecurus myosuroides (Alopecurus myosuroides [9]; 125 g/ha) | Phytotoxicity, Corn (Corn [10]) | Phytotoxicity, Cotton (Cotton [12]) | Phytotoxicity, Wheat (Wheat [13]) | Phytotoxicity, Rice (Rice [14]) | Herbicidal efficacy, Echinochloa crusgalli (Echinochloa crusgalli [15]; post-emergence, 125 g/ha) | Herbicidal efficacy, Digitaria sanguinalis (Digitaria sanguinalis [16]; post-emergence, 125 g/ha) | Herbicidal efficacy, Poa annua (Poa annua [17]; post-emergence, 125 g/ha) | Herbicidal efficacy, Poa annua (Poa annua [17]; post-emergence, 250 g/ha) | Herbicidal efficacy, Alopecurus myosuroides (Alopecurus myosuroides [18]; post-emergence, 125 g/ha) | Herbicidal efficacy, Alopecurus myosuroides (Alopecurus myosuroides [18]; post-emergence, 250 g/ha) | Herbicidal efficacy, Alopecurus myosuroides (Alopecurus myosuroides [18]; post-emergence, 500 g/ha)
